Reference: US20110160251A1, “ANIMAL ECTOPARASITE CONTROL COMPOSITION” (priority 2009, published 2011)

System: Haemaphysalis longicornis
Test: Test Example 6: filter paper contact test, fatality of ticks, compound in single solvent
Format: in vivo
Details: 63.6 mg/ml, 0.2 ml on filter paper (treatment amount 2000 mg/m^2), after 24 hours at 25° C.; for Fatality rate of tick (%) Example 2 diisobutyl adipate: solvent diisobutyl adipate; for Fatality rate of tick (%) Example 1 diisopropyl adipate: solvent diisopropyl adipate; for Fatality rate of tick (%) Comparative Example 1 Propylene Carbonate: solvent propylene carbonate
Experimental: The halogen-containing organosulfur compound (33) or (35) was dissolved in a solvent such that the concentration of the halogen-containing organosulfur compound was 63.6 mg/ml to a test solution. A filter paper was put on the bottom face of a glass petri dish with 7 cm diameter and treated with 0.2 ml of the test solution (treatment amount: 2000 mg/m^2). On the filter paper, 10 Haemaphysalis longicornis were released and allowed to contact the filter paper. The glass petri dish was allowd to stand still at 25° C. After 24 hours, fatalities of the insects were observed.

| Compound | Fatality rate of tick (%) Example 2 diisobutyl adipate [%] | Fatality rate of tick (%) Example 1 diisopropyl adipate [%] | Fatality rate of tick (%) Comparative Example 1 Propylene Carbonate [%] |
| --- | --- | --- | --- |
| CCON=C1CCC(C(C#N)S(=O)(=O)CCC(F)(F)F)CC1 (stereo not drawn) [Compound (35), 2-[4-(ethoxyimino)cyclohexyl]-2-(3,3,3-trifluoropropylsufonyl)acetonitrile] | 80 | 100 | 20 |
| CON=C1CCC(C(C#N)S(=O)(=O)CCC(F)(F)F)CC1 (stereo not drawn) [Compound (33), 2-[4-(methoxyimino)cyclohexyl]-2-(3,3,3-trifluoropropylsulfonyl)acetonitrile] | 85 | 100 | 25 |
